As a reminder, the IC50 is the point on the concentration scale where inhibition reaches its midpoint.

Bounds are passed on as bounds.

IDH1 R132H, sequence (O75874 whole entry R132H): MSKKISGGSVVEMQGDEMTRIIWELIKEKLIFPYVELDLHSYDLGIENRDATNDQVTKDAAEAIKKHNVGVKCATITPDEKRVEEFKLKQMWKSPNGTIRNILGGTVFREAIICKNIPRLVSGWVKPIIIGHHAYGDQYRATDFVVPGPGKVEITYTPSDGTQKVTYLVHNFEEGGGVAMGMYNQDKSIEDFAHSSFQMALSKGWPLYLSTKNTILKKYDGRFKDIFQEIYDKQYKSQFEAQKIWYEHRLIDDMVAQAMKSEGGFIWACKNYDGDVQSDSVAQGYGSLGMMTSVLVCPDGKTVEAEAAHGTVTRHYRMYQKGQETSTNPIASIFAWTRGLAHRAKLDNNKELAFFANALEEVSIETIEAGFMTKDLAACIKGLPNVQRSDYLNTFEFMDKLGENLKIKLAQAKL

In one test the target is IDH1 R132H (Homo sapiens, UniProt O75874, R132H). The test is described as follows: Assay for IDH1 R132H inhibitors (NADPH/aKG, resazurin detection). The class given is biochemical. The conditions noted are these: Table 3; enzyme assay, 50 minutes at room temperature; read-out: IC50 (IDH1 R132H Inhibition). How it is done:
Assays were conducted in a volume of 76 μl assay buffer (150 mM NaCl, 10 mM MgCl2, 20 mM Tris pH 7.5, 0.03% bovine serum albumin) as follows in a standard 384-well plate: To 25 ul of substrate mix (8 uM NADPH, 2 mM aKG), 1 μl of test compound was added in DMSO. The plate was centrifuged briefly, and then 25 μl of enzyme mix was added (0.2 μg/ml IDH1 R132H) followed by a brief centrifugation and shake at 100 RPM. The reaction was incubated for 50 minutes at room temperature, then 25 μl of detection mix (30 μM resazurin, […]) was added and the mixture further incubated for 5 minutes at room temperature. The conversion of resazurin to resorufin was detected by fluorescent spectroscopy at Ex544 Em590 c/o 590.
On the technique in general: Alamar Blue is a resazurin reagent that responds to reducing activity.
For `CC(C)c1nc(N2CCN(C(=O)Cc3cccs3)[C@H](C(C)C)C2)c(C#N)cc1-c1ccc(C(F)(F)F)cc1` [Compound 196, (R)-6-isopropyl-2-(3-isopropyl-4-(2-(thiophen-2-yl)acetyl)piperazin-1-yl)-5-(4-(trifluoromethyl)phenyl)-nicotinonitrile], the 50% inhibitory concentration (IC50) is 1 to 5 µM.
Same read-out and setting: then `CC(C)c1cc(-c2cccc(F)c2)c(C#N)c(N2CCN(C(=O)c3ccoc3)CC2)n1` [Compound 115, 4-(3-fluorophenyl)-2-(4-(furan-3-carbonyl)piperazin-1-yl)-6-isopropylnicotinonitrile], with 1 to 5 µM.
`CC(C)c1nc(N2CCN(C(=O)c3ccoc3)C(C)C2)c(C#N)cc1-c1ccccc1` (stereo not drawn) [Compound 120, 2-(4-(furan-3-carbonyl)-3-methylpiperazin-1-yl)-6-isopropyl-5-phenylnicotinonitrile]: the IC50 lay within 1 to 5 µM.
On the same count and under the same terms, the value for `COCCC(=O)N1CCN(c2nc(C3CC3)c(-c3ccc(C(F)(F)F)cc3)cc2C#N)C[C@H]1C` [Compound 226, (R)-6-cyclopropyl-2-(4-(3-methoxypropanoyl)-3-methylpiperazin-1-yl)-5-(4-(trifluoromethyl)phenyl)nicotinonitrile] was not above 1 µM; that for `CC(C)c1cc(-c2ccccc2)c(C#N)c(N2CCN(C(=O)c3ccoc3)C(c3ccccc3)C2)n1` (stereo not drawn) [Compound 154, 2-(4-(furan-3-carbonyl)-3-phenylpiperazin-1-yl)-6-isopropyl-4-phenylnicotinonitrile] was 5 to 15 µM; that for `COCCC(=O)N1CCN(c2nc(C3CC3)c(-c3cccc(C)c3)c(C)c2C#N)C[C@H]1C` [Compound 243, (R)-6-cyclopropyl-2-(4-(3-methoxypropanoyl)-3-methylpiperazin-1-yl)-4-methyl-5-m-tolylnicotinonitrile] was not above 1 µM.
Same read-out and setting: then `COCCC(=O)N1CCN(c2nc(C3CC3)c(-c3ccc(F)cc3F)cc2C#N)C[C@H]1C` [Compound 250, (R)-6-cyclopropyl-5-(2,4-difluorophenyl)-2-(4-(3-methoxypropanoyl)-3-methylpiperazin-1-yl)nicotinonitrile], with not above 1 µM; and `CC(C)c1cc(-c2ccccc2)c(C#N)c(N2CCN(C(=O)c3ccco3)CC2c2ccccc2)n1` (stereo not drawn) [Compound 167, 2-(4-(furan-2-carbonyl)-2-phenylpiperazin-1-yl)-6-isopropyl-4-phenylnicotinonitrile], with 1 to 5 µM; and `CC(C)c1nc(N2CCN(C(=O)c3ccco3)CC2c2ccccc2)c(C#N)cc1-c1ccccc1` (stereo not drawn) [Compound 166, 2-(4-(furan-2-carbonyl)-2-phenylpiperazin-1-yl)-6-isopropyl-5-phenylnicotinonitrile], with 5 to 15 µM.
Consider `CC(C)c1cc(-c2cccc(F)c2)c(C#N)c(N2CCN(C(=O)c3ccoc3)C(C)C2)n1` (stereo not drawn) [Compound 128, 4-(3-fluorophenyl)-2-(4-(furan-3-carbonyl)-3-methylpiperazin-1-yl)-6-isopropylnicotinonitrile], for which the IC50 lay within 1 to 5 µM.
Take `COCCC(=O)N1CCN(c2nc(C3CC3)c(-c3cccc(C)c3)cc2C#N)C[C@H]1C` [Compound 225, (R)-6-cyclopropyl-2-(4-(3-methoxypropanoyl)-3-methylpiperazin-1-yl)-5-m-tolylnicotinonitrile]: the IC50 was not above 1 µM.
For `COCCC(=O)N1CCN(c2nc(C(C)C)c(-c3ccc(C(C)C)cc3)cc2C#N)C[C@H]1C` [Compound 208, (R)-6-isopropyl-5-(4-isopropylphenyl)-2-(4-(3-methoxypropanoyl)-3-methylpiperazin-1-yl)nicotinonitrile], the half-maximal inhibitory concentration (IC50) was in the range of 1 to 5 µM.
The same measure, in the same setting: the value for `Cc1ccc(-c2cc(C#N)c(N3CCN(C(=O)c4ccoc4C)[C@H](C)C3)nc2C(C)C)cc1` [Compound 182, (R)-6-isopropyl-2-(3-methyl-4-(2-methylfuran-3-carbonyl)piperazin-1-yl)-5-p-tolylnicotinonitrile] was not above 1 µM; that for `CC(C)c1cc(-c2ccccc2)c(C#N)c(N2C[C@@H](C)N(C(=O)c3ccccc3)[C@@H](C)C2)n1` [Compound 101, 2-((3S,5R)-4-benzoyl-3,5-dimethylpiperazin-1-yl)-6-isopropyl-4-phenylnicotinonitrile] was 1 to 5 µM; that for `CC(C)c1nc(N2CCN(C(=O)Cc3cccs3)[C@H](C)C2)c(C#N)cc1-c1ccccc1` [Compound 165, (R)-6-isopropyl-2-(3-methyl-4-(2-(thiophen-2-yl)acetyl)piperazin-1-yl)-5-phenylnicotinonitrile] was 1 to 5 µM.
Consider `COCCC(=O)N1CCN(c2nc(C3CC3)c(-c3ccc(OC(F)(F)F)cc3)cc2C#N)C[C@H]1C` [Compound 227, (R)-6-cyclopropyl-2-(4-(3-methoxypropanoyl)-3-methylpiperazin-1-yl)-5-(4-(trifluoromethoxy)phenyl)nicotinonitrile], for which the half-inhibitory concentration (IC50) was not above 1 µM.

Staying with this test, now noted: enzyme assay of Example 12; read-out: IDH1R132H IC50.
Turning to `COCCC(=O)N1CCN(c2nc(C3CC3)c(-c3ccc(N4CCOCC4)cc3)cc2C#N)C[C@H]1C` [Compound 354, (R)-6-cyclopropyl-2-[4-(3-methoxy-propionyl)-3-methyl-piperazin-1-yl]-5-(4-morpholin-4-yl-phenyl)-nicotinonitrile], the half-maximal inhibitory concentration (IC50) lay within 0.5 to 1 µM.
In the case of `C[C@@H]1CN(c2nc(C3CC3)c(-c3cccc4cnccc34)cc2C#N)CCN1C(=O)[C@@H]1C[C@H]1CO` [Compound 505, 6-cyclopropyl-2-((R)-4-((1R,2R)-2-(hydroxymethyl)cyclopropanecarbonyl)-3-methylpiperazin-1-yl)-5-(isoquinolin-5-yl)nicotinonitrile], the concentration for half-maximal inhibition (IC50) was less than 0.5 µM.
On the same count and under the same terms, the value for `N#Cc1cc(-c2cccc3nc(N)ncc23)c(C2CC2)nc1N1CCN(C(=O)C2CC2)[C@H](C2CC2)C1` [Compound 538, (R)-5-(2-aminoquinazolin-5-yl)-2-(4-(cyclopropanecarbonyl)-3-cyclopropylpiperazin-1-yl)-6-cyclopropylnicotinonitrile] was less than 0.5 µM; that for `COCCC(=O)N1CCN(c2nc(C3CC3)c(-c3cccc4c3CN(C)C4=O)cc2C#N)C[C@H]1C` [Compound 460, (R)-6-Cyclopropyl-2-(4-(3-methoxypropanoyl)-3-methylpiperazin-1-yl)-5-(2-methyl-1-oxoisoindolin-4-yl)nicotinonitrile] was less than 0.5 µM.
In the case of `N#Cc1cc(-c2cnnc(O)c2)c(C2CC2)nc1N1CCN(C(=O)CCO)[C@H](C2CC2)C1` [Compound 671, (R)-6-cyclopropyl-2-(3-cyclopropyl-4-(3-hydroxypropanoyl)piperazin-1-yl)-5-(6-hydroxypyridazin-4-yl)nicotinonitrile], the IC50 is less than 0.5 µM.
Take `COCCC(=O)N1CCN(c2nc(C3CC3)c(-c3cc(Cl)nc(C#N)c3)cc2C#N)C[C@H]1C` [Compound 673, (R)-6′-chloro-2-cyclopropyl-6-(4-(3-methoxypropanoyl)-3-methylpiperazin-1-yl)-[3,4′-bipyridine]-2′,5-dicarbonitrile]: the half-inhibitory concentration (IC50) lay within 0.5 to 1 µM.
In the case of `COCCC(=O)N1CCN(c2nc(C3CC3)c(-c3cccc(OC)c3F)c(C)c2C#N)C[C@H]1C` [Compound 324, (R)-6-cyclopropyl-5-(2-fluoro-3-methoxy-phenyl)-2-[4-(3-methoxy-propionyl)-3-methyl-piperazin-1-yl]-4-methyl-nicotinonitrile], the 50% inhibitory concentration (IC50) was 0.5 to 1 µM.
Same read-out and setting: then `C=Cc1cc(-c2cc(C#N)c(N3CCN(C(=O)C[C@H]4CCC(=O)O4)[C@H](C4CC4)C3)nc2C2CC2)ccn1` [Compound 821], with less than 0.5 µM; and `C[C@@H]1CN(c2nc(C3CC3)c(-c3cccc4cnccc34)cc2C#N)CCN1C(=O)C1CC1` [Compound 556, (R)-2-(4-(cyclopropanecarbonyl)-3-methylpiperazin-1-yl)-6-cyclopropyl-5-(isoquinolin-5-yl)nicotinonitrile], with less than 0.5 µM.
Consider `N#Cc1cc(-c2cccc3c2CNC3=O)c(C2CC2)nc1N1CCN(C(=O)C2CC2)[C@H](C2CC2)C1` [Compound 464, (R)-2-(4-(Cyclopropanecarbonyl)-3-cyclopropylpiperazin-1-yl)-6-cyclopropyl-5-(1-oxoisoindolin-4-yl)nicotinonitrile], for which the IC50 was 0.5 to 1 µM.
Same read-out and setting: then `COCCC(=O)N1CCN(c2nc(C3CC3)c(-c3ccc(OCC4CC4)cc3)c(C)c2C#N)C[C@H]1C` [Compound 336, (R)-6-cyclopropyl-5-(4-cyclopropylmethoxy-phenyl)-2-[4-(3-methoxy-propionyl)-3-methyl-piperazin-1-yl]-4-methyl-nicotinonitrile], with 0.5 to 1 µM; and `COCCC(=O)N1CCN(c2nc(C3CC3)c(-c3cccc(COC)c3)c(C)c2C#N)C[C@H]1C` [Compound 322, (R)-6-cyclopropyl-5-(3-methoxymethyl-phenyl)-2-[4-(3-methoxy-propionyl)-3-methyl-piperazin-1-yl]-4-methyl-nicotinonitrile], with less than 0.5 µM; and `N#Cc1cc(-c2cncc(C(N)=O)c2)c(C2CC2)nc1N1CCN(C(=O)CC(F)(F)F)[C@H](C2CC2)C1` [Compound 540, (R)-5′-cyano-2′-cyclopropyl-6′-(3-cyclopropyl-4-(3,3,3-trifluoropropanoyl)piperazin-1-yl)-[3,3′-bipyridine]-5-carboxamide], with less than 0.5 µM.
As for `N#Cc1cc(-c2cc(CCN)nc(N)n2)c(C2CC2)nc1N1CCN(C(=O)C2CC2)[C@H](C2CC2)C1` [Compound 701, (R)-5-(2-amino-6-(2-aminoethyl)pyrimidin-4-yl)-2-(4-(cyclopropanecarbonyl)-3-cyclopropylpiperazin-1-yl)-6-cyclopropylnicotinonitrile], the IC50 was less than 0.5 µM.

For the origin of these results see patent publication US9856279B2 (AGIOS PHARMACEUTICALS, INC, priority 2011, dated 2018).
